Some test systems named below: NCI-H460; UACC-62; HOP-92; M14; PC-3; SNB-19; SNB-75; A549; 786-0; Malme-3M; SK-MEL-5; SW-620; K562; OVCAR-8; NCI-H226; KM12; LOX IMVI; SF-268; HT-29; DU-145.
What all share (test): growth of human tumour cells (NCI), 48 h

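Where inhibition never reached the appropriate level, the endpoint shown equals the highest concentration tested. Otherwise, values were interpolated linearly from a five-concentration, 48-hour dose response in 96-well plates. GI50 marks 50% less growth.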 Active and inactive are the calls of the source. No stated cut-off is given here; in the data, active = GI50 up to about 1.1 µM and inactive = higher. Bounds are passed on as bounds.

On to `O=c1oc2ccccc2c(Nc2ccc3c(c2)Oc2ccccc2O3)c1[N+](=O)[O-]`, for which the GI50 in the assay on NCI-H460 is 42.2 µM (inactive); in the assay with UACC-62 it was 17.7 µM (inactive); in the assay with HOP-92 it was 16.7 µM (inactive); in the assay on M14, 30.3 µM (inactive); in the assay on PC-3 it was 17.7 µM (inactive); in the assay on SNB-19, 17.5 µM (inactive). The GI50 in the assay on SNB-75 was 14.7 µM (inactive); in the assay on A549 it was 32.4 µM (inactive); in the assay on 786-0, 18.9 µM (inactive); in the assay on Malme-3M it was 23 µM (inactive); with SK-MEL-5 it was 20.4 µM (inactive); in the assay with SW-620, 22.7 µM (inactive). For the same compound, the GI50 in the assay with K562 is 51.8 µM (inactive); with OVCAR-8, 18.8 µM (inactive); in the assay with NCI-H226 it was 23.1 µM (inactive); in the assay on KM12, 59.2 µM (inactive); in the assay with LOX IMVI, 36.9 µM (inactive); in the assay on SF-268 it was 23.7 µM (inactive). The GI50 was 65.2 µM (inactive) with HT-29 and 29.6 µM (inactive) with DU-145.
As to `Cc1nc2ccc(S(=O)(=O)O)cc2c(=O)n1-c1ccc(C(=O)NN2C(=O)C(Cl)C2c2cccs2)cc1` (stereo not given), the GI50 is > 100 µM (inactive) in the assay with NCI-H460; > 100 µM (inactive) with UACC-62; > 100 µM (inactive) in the assay with HOP-92; 18.2 µM (inactive) with M14; > 100 µM (inactive) in the assay with PC-3; > 100 µM (inactive) in the assay with SNB-19. Besides, the GI50 was 50.4 µM (inactive) in the assay with SNB-75; > 100 µM (inactive) in the assay with A549; > 100 µM (inactive) in the assay with 786-0; > 100 µM (inactive) with Malme-3M; > 100 µM (inactive) with SK-MEL-5; > 100 µM (inactive) with SW-620. The GI50 in the assay with K562 is > 100 µM (inactive); in the assay with OVCAR-8, > 100 µM (inactive); in the assay on NCI-H226 it was > 100 µM (inactive); in the assay with KM12 it was > 100 µM (inactive); with LOX IMVI, > 100 µM (inactive); in the assay on SF-268 it was 20.7 µM (inactive). Moreover, the GI50 in the assay on HT-29 and in the assay on DU-145 was > 100 µM (inactive) throughout.
With `COc1cc(C2c3cc4c(cc3[C@@H](Nc3ccc(N)cc3)C3COC(=O)[C@H]23)OCO4)cc(OC)c1O` (stereo not given in full), the GI50 in the assay on NCI-H460 was 0.0557 µM (active); in the assay with UACC-62, 1.15 µM (inactive); with HOP-92, 0.948 µM (active); in the assay on M14, 1.31 µM (inactive); in the assay on PC-3 it was 0.446 µM (active); with SNB-19, 0.805 µM (active). For the same compound, the GI50 in the assay with SNB-75 was 1.94 µM (inactive); with A549 it was 0.137 µM (active); in the assay with 786-0 it was 0.908 µM (active); with Malme-3M it was 2.13 µM (inactive); in the assay with SK-MEL-5, 0.918 µM (active); with SW-620 it was 2.14 µM (inactive). Moreover, the GI50 in the assay on K562 was 3.13 µM (inactive); with OVCAR-8 it was 2.22 µM (inactive); in the assay on NCI-H226 it was 1.19 µM (inactive); in the assay on KM12, 3.43 µM (inactive); in the assay on LOX IMVI, 0.395 µM (active); in the assay on SF-268 it was 1.63 µM (inactive). Also, the GI50 in the assay on HT-29 was 3.64 µM (inactive); with DU-145 it was 0.121 µM (active).
With `N#Cc1c(N2CCCC2)ncn(Cc2ccccc2)c1=S`, the GI50 in the assay on NCI-H460 is > 100 µM (inactive); in the assay with UACC-62 it was 68.7 µM (inactive); with HOP-92, 22.4 µM (inactive); in the assay with M14, > 100 µM (inactive); with PC-3 it was 71.3 µM (inactive); with SNB-19, 58.5 µM (inactive). Moreover, the GI50 is 25.8 µM (inactive) with SNB-75; > 100 µM (inactive) with A549; 36.2 µM (inactive) with 786-0; > 87.9 µM (inactive) in the assay with Malme-3M; > 100 µM (inactive) in the assay on SK-MEL-5; > 100 µM (inactive) with SW-620. For the same compound, the GI50 is > 100 µM (inactive) in the assay on K562; 57.1 µM (inactive) with OVCAR-8; > 96.2 µM (inactive) with NCI-H226; > 100 µM (inactive) in the assay on KM12; > 100 µM (inactive) in the assay with LOX IMVI; 33.6 µM (inactive) with SF-268. The GI50 in the assay with HT-29 was > 100 µM (inactive); with DU-145 it was 86.3 µM (inactive).
With `N=C1OC(c2cccc(Cl)c2)C(NNS(=O)(=O)c2ccccc2)=C1O` (stereo not given), the GI50 in the assay with NCI-H460 was 44.1 µM (inactive); in the assay with UACC-62 it was 24.9 µM (inactive); with HOP-92 it was 23.6 µM (inactive); in the assay on M14, 22.4 µM (inactive); in the assay with PC-3, 21.2 µM (inactive); in the assay with SNB-19 it was 55.5 µM (inactive). The GI50 in the assay with SNB-75 is 26.9 µM (inactive); with A549 it was 80.9 µM (inactive); in the assay with 786-0 it was 24.8 µM (inactive); in the assay on Malme-3M, 22.4 µM (inactive); with SK-MEL-5, 41.7 µM (inactive); with SW-620, 12.8 µM (inactive). Also, the GI50 with K562 was 3.69 µM (inactive); with OVCAR-8, 30.5 µM (inactive); with NCI-H226, 43.9 µM (inactive); in the assay with KM12, 47.8 µM (inactive); with LOX IMVI, 20.7 µM (inactive); in the assay on SF-268, 39.7 µM (inactive). The GI50 in the assay with HT-29 was 19.9 µM (inactive); in the assay on DU-145, > 100 µM (inactive).
On to `c1ccc(CN2CCN3CCN(CC2)CCN(Cc2ccccc2)CC3)cc1`, for which the GI50 in the assay on NCI-H460 was 6.15 µM (inactive); in the assay with UACC-62, 4.24 µM (inactive); with HOP-92 it was 7.06 µM (inactive); in the assay with M14 it was 5.51 µM (inactive); with PC-3 it was 4.97 µM (inactive); in the assay with SNB-19, 5.43 µM (inactive). Besides, the GI50 with SNB-75 is 4.05 µM (inactive); in the assay on A549, 11.5 µM (inactive); with 786-0 it was 4.57 µM (inactive); with Malme-3M, 2.83 µM (inactive); in the assay with SK-MEL-5 it was 1.98 µM (inactive); with SW-620, 13.7 µM (inactive). In addition, the GI50 is 4 µM (inactive) with K562; 9.73 µM (inactive) in the assay with OVCAR-8; 4.94 µM (inactive) with NCI-H226; 3.33 µM (inactive) with KM12; 8.81 µM (inactive) in the assay with LOX IMVI; 11.6 µM (inactive) with SF-268. Moreover, the values for the GI50 with HT-29 and in the assay with DU-145 were 3.37 µM (inactive) and 12.4 µM (inactive), respectively.
Regarding `O=C1C(c2c(O)[nH]c3ccc(Cl)cc23)=Nc2ccccc21`, the GI50 in the assay with NCI-H460 was 12.1 µM (inactive); with UACC-62, 11.8 µM (inactive); in the assay with HOP-92 it was 8.02 µM (inactive); with M14, 6.85 µM (inactive); in the assay on PC-3 it was 3.28 µM (inactive); in the assay with SNB-19 it was 10.3 µM (inactive). The GI50 with SNB-75 is 4.99 µM (inactive); in the assay on A549, 3.58 µM (inactive); with 786-0, 1.99 µM (inactive); in the assay on Malme-3M, 5.68 µM (inactive); in the assay with SK-MEL-5 it was 3.18 µM (inactive); in the assay with SW-620 it was 25.4 µM (inactive). In addition, the GI50 in the assay with K562 was 7.71 µM (inactive); with OVCAR-8, 4.09 µM (inactive); in the assay on NCI-H226 it was 6.05 µM (inactive); with KM12, 3.08 µM (inactive); with LOX IMVI, 3.66 µM (inactive); with SF-268 it was 5.36 µM (inactive). Further, the GI50 in the assay on HT-29 was 5.09 µM (inactive); in the assay with DU-145, 2.81 µM (inactive).
